Paper PMC5743680, “Bleogens: Cactus-Derived Anti-Candida Cysteine-Rich Peptides with Three Different Precursor Arrangements” (Frontiers in Plant Science, 2017)

Test: Heparin affinity chromatography
Type: binding
Conditions: TSKgel Heparin-5PW column, 10 mM phosphate buffer, pH 7.2
Description: Heparin binding chromatography was performed by high performance liquid chromatography (HPLC; Shimadzu, Japan). A linear gradient of mobile phase A (10 mM phosphate buffer, pH 7.2) and mobile phase B (0.75 M NaCl in 10 mM phosphate buffer, pH 7.2) was used with a TSKgel Heparin-5PW column ([…], 10 μm; Tosoh Bioscience, Japan).

With SIGGIR the “binding to heparin HPLC affinity column” value was “did not bind”.
